pEC50: −log10 of the molar value. Several values for one entry are separate records, joined by “and”; a condition that tells them apart may be missing. Identical values can stand only once.
Legend:
[1] = target: CLIP-mGluR2/SNAP-mGluR7 heterodimer (mGluR2/7) (Rattus norvegicus, UniProt P31421+P35400); assay: smFRET on isolated CLIP-mGluR2/SNAP-mGluR7 heterodimers
[2] = target: T1, mGluR7(K319C) (Rattus norvegicus, UniProt P35400, K319C); type: cell-based; conditions: vs wild-type mGluR7
T1 construct: expressed in transfected cells; host or cells: HEK293 / HEK293T
From the text: Illumination was applied to the entire field of view using either a Polychrome V monochromator (TILL Photonics) through a 20× objective, or a Lambda DG4 high-speed wavelength switcher (Sutter Instruments) with 380 nm and 500 nm filters through a 40× objective. pClamp software was used for both data acquisition and control of illumination.

[3] = tested on: mGluR5(YADA) homodimer; conditions: 10 mM glutamate ref 46; cited from earlier work
[4] = tested on: mGluR5/mGluR5(YADA); conditions: cited from earlier work
[5] = target: T2, SNAP-mGluR4/4 homodimer (Rattus norvegicus, UniProt P31423); assay: Live-cell ensemble FRET of SNAP-mGluR4/4 homodimer in HEK293 cells; type: cell-based
T2 construct: HA (N); expressed in transfected cells; host or cells: HEK293 / HEK293T
Experimental: (§1) After labeling, cells were mounted on an upright, scanning confocal microscope (Zeiss LSM 780) and imaged with a 20X objective. […] Clusters of cells were analyzed together and FRET was calculated as FRET = (IA)/(ID + IA), in which ID is the fluorescence donor intensity and IA is the fluorescence acceptor intensity. […] Fitting of dose–response curves was performed using Prism (Graphpad). […] Drugs were delivered with a gravity-driven perfusion system.

[6] = target: T3, SNAP-mGluR7/SNAP-mGluR7 homodimer (mGluR7/7) (Rattus norvegicus, UniProt P35400); assay: Live-cell ensemble FRET of SNAP-mGluR7/7 homodimer in HEK293T cells; type: cell-based; set-up: HA (N); made in house; host or cells: HEK293T
Experimental: as §1

[7] = target: T4, CLIP-mGluR2/SNAP-mGluR2(YADA) dimer (Rattus norvegicus, UniProt P31421, D295A/Y216A); assay: smFRET on CLIP-mGluR2/SNAP-mGluR2(YADA) dimers; type: biochemical; conditions: for mGluR2/2(YADA) Histogram area: Figure 4c
T4 construct: Flag (N); HA (N); made in house; host or cells: HEK293T
From the text: To examine this, we tested the behavior of a heterodimer that co-assembles a wild-type mGluR2 with a binding site mutant version of mGluR2, mGluR2 (Y216A and D295A; known as the YADA mutant). […] We co-expressed CLIP-mGluR2 and SNAP-mGluR2(YADA) and labeled with the SNAP-selective acceptor dye BG-Alexa-647 and the CLIP-selective donor dye BC-DY-547. […] These findings indicate that closure of a single wild-type mGluR2 subunit is much more efficient in activating the receptor when partnered in the dimer with an mGluR7 than with another mGluR2.
(100 ms time resolution).

[8] = target: SNAP-mGluR2/SNAP-mGluR2 (mGluR2/2) (Rattus norvegicus, UniProt P31421); assay: Whole-cell patch clamp of GIRK1 current, mGluR2/2 homodimer; conditions: mGluR2/2+GIRK; for titration values, single replicates 1-3: individual replicates; for titration values, AVG (normalized response): Supplemental Figure 1a
[9] = target: T3, SNAP-mGluR7/SNAP-mGluR7 homodimer (mGluR7/7); assay: smFRET on isolated immune-purified SNAP-mGluR7/7 dimers; conditions: read-out: EC50 of low FRET peak concentration-response (apparent affinity); smFRET, isolated receptor

T3 sequence (P35400 35-915): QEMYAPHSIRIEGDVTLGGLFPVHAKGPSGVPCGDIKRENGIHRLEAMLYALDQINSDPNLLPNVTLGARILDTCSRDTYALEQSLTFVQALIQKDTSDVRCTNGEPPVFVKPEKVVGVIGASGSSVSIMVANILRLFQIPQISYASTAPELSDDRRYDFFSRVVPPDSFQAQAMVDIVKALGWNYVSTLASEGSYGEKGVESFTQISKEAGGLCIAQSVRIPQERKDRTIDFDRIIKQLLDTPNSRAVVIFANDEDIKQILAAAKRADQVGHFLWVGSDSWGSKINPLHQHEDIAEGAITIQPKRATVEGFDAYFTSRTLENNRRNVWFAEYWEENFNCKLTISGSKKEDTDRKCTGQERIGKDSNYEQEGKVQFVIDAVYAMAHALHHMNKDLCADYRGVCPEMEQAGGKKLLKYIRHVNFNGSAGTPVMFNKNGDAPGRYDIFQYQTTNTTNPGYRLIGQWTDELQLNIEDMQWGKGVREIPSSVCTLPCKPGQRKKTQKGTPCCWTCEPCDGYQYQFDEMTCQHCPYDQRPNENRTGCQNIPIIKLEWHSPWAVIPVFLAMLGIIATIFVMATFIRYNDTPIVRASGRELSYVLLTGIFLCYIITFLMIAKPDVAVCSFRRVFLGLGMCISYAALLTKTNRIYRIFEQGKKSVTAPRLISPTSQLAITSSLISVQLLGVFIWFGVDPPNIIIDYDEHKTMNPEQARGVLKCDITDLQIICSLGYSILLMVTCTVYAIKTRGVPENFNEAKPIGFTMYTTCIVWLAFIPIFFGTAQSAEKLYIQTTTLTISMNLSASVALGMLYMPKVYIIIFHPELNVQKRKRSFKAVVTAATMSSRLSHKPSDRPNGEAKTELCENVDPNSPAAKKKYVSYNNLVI
T2 sequence (P31423 33-912): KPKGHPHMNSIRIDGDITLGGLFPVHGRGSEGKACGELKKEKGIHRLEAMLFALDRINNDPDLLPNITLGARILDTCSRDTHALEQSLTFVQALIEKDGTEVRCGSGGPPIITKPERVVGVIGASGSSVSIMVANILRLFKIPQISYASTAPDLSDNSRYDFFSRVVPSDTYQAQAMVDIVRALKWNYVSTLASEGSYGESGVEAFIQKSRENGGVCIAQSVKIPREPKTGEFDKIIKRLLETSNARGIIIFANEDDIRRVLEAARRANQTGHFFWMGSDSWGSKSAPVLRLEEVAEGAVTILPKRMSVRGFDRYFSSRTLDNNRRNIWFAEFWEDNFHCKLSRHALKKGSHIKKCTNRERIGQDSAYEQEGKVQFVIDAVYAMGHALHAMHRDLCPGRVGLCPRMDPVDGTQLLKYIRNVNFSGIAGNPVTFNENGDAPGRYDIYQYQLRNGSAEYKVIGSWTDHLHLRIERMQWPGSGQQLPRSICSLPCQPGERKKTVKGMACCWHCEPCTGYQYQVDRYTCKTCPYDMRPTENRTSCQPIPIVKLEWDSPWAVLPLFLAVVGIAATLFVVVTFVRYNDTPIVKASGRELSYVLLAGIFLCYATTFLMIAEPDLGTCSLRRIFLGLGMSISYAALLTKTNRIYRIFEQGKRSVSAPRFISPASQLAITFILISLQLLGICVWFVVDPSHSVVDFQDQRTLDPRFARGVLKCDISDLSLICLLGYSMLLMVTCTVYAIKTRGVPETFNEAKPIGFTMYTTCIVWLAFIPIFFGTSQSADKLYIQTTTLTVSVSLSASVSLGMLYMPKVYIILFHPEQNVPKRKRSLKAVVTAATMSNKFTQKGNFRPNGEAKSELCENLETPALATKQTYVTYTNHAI
CLIP-mGluR2/SNAP-mGluR7 heterodimer (mGluR2/7), sequence (P31421 19-872): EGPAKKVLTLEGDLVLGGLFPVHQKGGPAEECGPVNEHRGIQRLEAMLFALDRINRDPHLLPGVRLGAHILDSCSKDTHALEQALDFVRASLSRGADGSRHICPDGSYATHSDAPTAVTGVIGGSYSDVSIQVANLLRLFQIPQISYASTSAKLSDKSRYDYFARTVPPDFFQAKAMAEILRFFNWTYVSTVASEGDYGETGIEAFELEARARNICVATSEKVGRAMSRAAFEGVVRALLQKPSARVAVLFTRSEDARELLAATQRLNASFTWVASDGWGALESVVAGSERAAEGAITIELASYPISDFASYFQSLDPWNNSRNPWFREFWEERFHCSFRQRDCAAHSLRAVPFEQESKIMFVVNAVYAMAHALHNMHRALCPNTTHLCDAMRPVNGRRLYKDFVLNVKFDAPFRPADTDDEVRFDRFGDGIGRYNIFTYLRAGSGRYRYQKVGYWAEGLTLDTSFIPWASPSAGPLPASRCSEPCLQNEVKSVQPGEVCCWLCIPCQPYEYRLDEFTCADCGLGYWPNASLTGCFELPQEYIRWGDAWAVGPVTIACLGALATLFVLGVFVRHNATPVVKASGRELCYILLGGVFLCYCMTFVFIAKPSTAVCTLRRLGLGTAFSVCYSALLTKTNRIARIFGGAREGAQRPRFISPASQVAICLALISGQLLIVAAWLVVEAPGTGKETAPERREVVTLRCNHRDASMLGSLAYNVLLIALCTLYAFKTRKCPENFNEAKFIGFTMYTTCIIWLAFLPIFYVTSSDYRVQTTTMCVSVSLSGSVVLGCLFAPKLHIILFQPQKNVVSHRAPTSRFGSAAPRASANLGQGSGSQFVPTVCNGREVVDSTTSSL
CLIP-mGluR2/SNAP-mGluR7 heterodimer (mGluR2/7), sequence (P35400 35-915): as the sequence (P35400 35-915) above
SNAP-mGluR2/SNAP-mGluR2 (mGluR2/2), sequence (P31421 19-872): as the sequence (P31421 19-872) above
T4 sequence (P31421 19-872, stated change not applied): as the sequence (P31421 19-872) above
T4 sequence (P31421 19-872 Y216A/D295A): as the sequence (P31421 19-872) above, with Y198A, D277A counted along it
T1 sequence (P35400 35-915 K319C): as the sequence (P35400 35-915) above, with K285C counted along it

Compound: N[C@@H](CCC(=O)O)C(=O)O [glutamate]
- occupancy of the low FRET active state ([1]; 10 μM glutamate): ~ 50%
- smFRET level ([1]; 10 mM glutamate): ~ 0.2
- minor low affinity component, share ([1]; smFRET): ~ 20%
- occupancy of low FRET activated conformation at top of biphasic relation ([1]; smFRET): full occupancy
- major high affinity component (single-subunit liganding), share of maximal activation ([1]; smFRET, top of first component at 1 mM glutamate): ~ 80%
- effect of K319C mutation on apparent affinity for glutamate (GIRK current) [2]: did not alter the apparent affinity
- activation by glutamate [3]: not be activated
- first low glutamate concentration component, share of maximal activation [4]: ~ 20%
- titration values, single replicates 1-3 ([5]; Glu 1e-8, individual replicates): 0
- titration values, AVG (normalized response) ([5]; Glu 1e-7): 0.0203
- titration values, single replicates 1-3 ([5]; Glu 1e-7, individual replicates, listed as Glu): 0.03656 and 0.01694 and 0.007398
- titration values, AVG (normalized response) ([5]; Glu 1e-6): 0.0444
- titration values, single replicates 1-3 ([5]; Glu 1e-6, individual replicates, listed as Glu): 0.05482 and 0.03845 and 0.03991
- titration values, AVG (normalized response) ([5]; Glu 1e-5): 0.4393
- titration values, single replicates 1-3 ([5]; Glu 1e-5, individual replicates, listed as Glu): 0.4343 and 0.4025 and 0.481
- titration values, AVG (normalized response) ([5]; Glu 0.0001): 0.8959
- titration values, single replicates 1-3 ([5]; Glu 0.0001, individual replicates, listed as Glu): 0.9016 and 0.8805 and 0.9055
- titration values, AVG (normalized response) ([5]; Glu 0.001 (normalisation point)): 1
- titration values, single replicates 1-3 ([5]; Glu 0.001 (normalisation point), individual replicates): 1
- FRET decrease ([6]; 10 mM glutamate, live HEK293T cells): barely measurable FRET decrease
- fractional change in FRET (Figure 1c), Average ([6]; 10 mM glutamate, live cells): 0.002
- glutamate concentration required for a measurable response ([6]; live-cell ensemble FRET): 10 mM
- FRET change ([6]; up to 1 mM glutamate, live HEK293T cells): no detectable FRET change
- mGluR2/2(YADA) Histogram area ([7]; Glu 1e-6): 0.0005
- mGluR2/2(YADA) Histogram area ([7]; Glu 3e-6): 0.0013
- mGluR2/2(YADA) Histogram area ([7]; Glu 1e-5): 0.00167
- mGluR2/2(YADA) Histogram area ([7]; Glu 3e-5): 0.00171
- mGluR2/2(YADA) Histogram area ([7]; Glu 0.0001): 0.00339
- mGluR2/2(YADA) Histogram area ([7]; Glu 0.0003): 0.00443
- mGluR2/2(YADA) Histogram area ([7]; Glu 0.001): 0.00578
- mGluR2/2(YADA) Histogram area ([7]; Glu 0.01): 0.00605
- mGluR2/2(YADA) Histogram area ([7]; Glu 0.1): 0.00616
- maximal occupancy of the low FRET activated conformation ([7]; high glutamate): ~ 30%
- titration values, single replicates 1-3 ([8]; Glu 1e-6, listed as Glu): 0.1214 and 0.05844 and 0.0437
- titration values, AVG (normalized response) ([8]; Glu 1e-5): 0.4456
- titration values, single replicates 1-3 ([8]; Glu 1e-5, listed as Glu): 0.4624 and 0.4291 and 0.4452
- titration values, AVG (normalized response) ([8]; Glu 0.0001): 0.9358
- titration values, single replicates 1-3 ([8]; Glu 0.0001, listed as Glu): 0.9459 and 0.9335 and 0.9281
- titration values, AVG (normalized response) ([8]; Glu 0.001): 1.022
- titration values, single replicates 1-3 ([8]; Glu 0.001, listed as Glu): 1.05 and 1.012 and 1.0027
- titration values, AVG (normalized response) ([8]; Glu 0.01 (normalisation point)): 1
- titration values, single replicates 1-3 ([8]; Glu 0.01 (normalisation point)): 1
- pEC50 [9]: 1.42
